pKi: −log10 of the molar value. Read-outs that look alike come from different tables or passages of the source.
Columns and labels:
[1] = stability test of brivaracetam solutions at different pH; assay type: physicochemical
Experimental: Solutions at different pH are prepared (natural pH (not buffered) and pH 4.5, 5.0, 5.5, 6.0. The pH is controlled by means of an adequate buffer in order to obtain the wished pH (in the example by 50 mM citrate).
(§1) The solution is dispensed in 1.5 ml sealed glass vials.
(§2) A stability test is performed at 25° C., 40° C., 60° C. and 80° C.
The pH of the various solutions is measured at the beginning of the test and after 2 weeks, 4 weeks, and 10 weeks. The amounts of degradation products in the brivaracetam solutions are dosed in the various solutions.

[2] = molecular target: T1, Levetiracetam Binding Site (LBS) (Rattus norvegicus, UniProt Q02563); experiment: LBS binding assay; design: species or system Sprague-Dawley rats
T1 construct: from tissue; host or cells: rat cerebral cortex crude membranes (male Sprague-Dawley)
T1 sequence (Q02563 whole entry): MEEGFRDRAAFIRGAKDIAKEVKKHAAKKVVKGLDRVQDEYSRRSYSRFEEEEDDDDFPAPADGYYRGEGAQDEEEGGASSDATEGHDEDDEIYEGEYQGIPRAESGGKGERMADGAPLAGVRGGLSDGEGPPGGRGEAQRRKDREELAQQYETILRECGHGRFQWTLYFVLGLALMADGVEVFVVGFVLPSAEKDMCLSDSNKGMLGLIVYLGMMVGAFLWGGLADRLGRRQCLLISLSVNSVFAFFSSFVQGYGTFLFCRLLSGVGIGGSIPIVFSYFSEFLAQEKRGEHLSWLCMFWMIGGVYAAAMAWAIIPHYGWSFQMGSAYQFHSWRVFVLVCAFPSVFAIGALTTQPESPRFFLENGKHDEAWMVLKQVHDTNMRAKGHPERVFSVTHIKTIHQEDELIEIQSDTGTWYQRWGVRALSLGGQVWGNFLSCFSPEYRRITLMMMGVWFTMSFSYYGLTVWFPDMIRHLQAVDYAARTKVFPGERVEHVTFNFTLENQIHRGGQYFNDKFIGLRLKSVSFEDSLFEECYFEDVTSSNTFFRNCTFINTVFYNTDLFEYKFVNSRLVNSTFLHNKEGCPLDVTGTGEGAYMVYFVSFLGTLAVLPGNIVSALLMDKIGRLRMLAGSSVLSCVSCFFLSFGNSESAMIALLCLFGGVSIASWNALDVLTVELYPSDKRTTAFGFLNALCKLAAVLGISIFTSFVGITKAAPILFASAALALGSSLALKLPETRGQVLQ
Experimental: [LBS stands for Levetiracetam Binding Site cf. M. Noyer et al., Eur. J. Pharmacol., 286 (1995) 137-146.]
The inhibition constant (Ki) of a compound is determined in competitive binding experiments by measuring the binding of a single concentration of a radioactive ligand at equilibrium with various concentrations of the unlabeled test substance. The concentration of the test substance inhibiting 50% of the specific binding of the radioligand is called the IC50. The equilibrium dissociation constant Ki is proportional to the IC50 and is calculated using the equation of Cheng and Prusoff (Cheng Y. et al., Biochem. Pharmacol. […], 22, 3099-3108).
The concentration range usually encompasses 6 log units with variable steps (0.3 to 0.5 log). Assays are performed in mono- or duplicate, each Ki determination is performed on two different samples of test substance. […]
Membranes (150-200 μg of protein/assay) are incubated at 4° C. for 120 min in 0.5 ml of a 50 mmol/l Tris-HCl buffer (pH 7.4) containing 2 mmol/l MgCl2, 1 to 2 10^−9 mol/l of [^3H]-2-[4-(3-azidophenyl)-2-oxo-1-pyrrolidinyl]butanamide and increasing concentrations of the test substance. […] The radioactivity trapped onto the filters is counted by liquid scintillation in a β-counter (Tri-Carb 1900 or TopCount 9206, Camberra Packard, Belgium, or any other equivalent counter). […]

[3] = system: audiogenic seizures in sound-susceptible mice; experiment: animal model of sound-susceptible mice; assay type: in vivo; conditions: Mus musculus, ip; intraperitoneally 60 minutes before induction of audiogenic seizures; dose producing 50% protection
Excerpt: The objective of this test is to evaluate the anticonvulsant potency of a compound in sound-susceptible mice, a genetic animal model with reflex seizures. In this model of primary generalised epilepsy, seizures are evoked without electrical or chemical stimulation and the seizure types are, at least in part, similar in their clinical phenomenology to seizures occurring in man (Löscher W. 85 Schmidt D., Epilepsy Res. (1998), 2, 145-181; Buchhalter J. R., Epilepsia (1993), 34, S31-S41).
Male or female genetically sound-sensitive mice (14-28 g; N=10), derived from a DBA strain originally selected by Dr. Lehmann of the Laboratory of Acoustic Physiology (Paris) and bred in the UCB Pharma Sector husbandry unit since 1978, are used. The experimental design consisted of several groups, one group receiving the vehicle control and the other groups different doses of the test-compound. The compounds are administered intraperitoneally 60 minutes before the induction of audiogenic seizures.
For testing, the animals are placed in small cages, one mouse per cage, in a sound-attenuated chamber. […] During this interval, the mice are observed and the presence of the 3 phases of the seizure activity namely wild running, clonic and tonic convulsions, is recorded. The proportion of mice protected against wild running, clonic and tonic convulsions, respectively, is calculated. […]

[4] = bioavailability and safety of an intravenous formulation of brivaracetam; assay type: in vivo, healthy subjects
Experimental: A first step of the study done in a 3-way crossover in 24 healthy subjects (12 females, 12 males) compares the single-dose bioavailability of brivaracetam 10 mg oral tablets versus brivaracetam 10 mg administered as a 15 minute intravenous infusion, and as an IV bolus. In a second step, a single-dose escalation study (25 mg, 50 mg, 100 mg and 150 mg) is performed in 4 consecutive groups of 6 subjects (3 females, 3 males) to gain information and as a fast IV bolus, to assess the pharmacokinetics of brivaracetam at these dosing regimens and to explore dose proportionality.

[5] = stability test of seletracetam solutions at different pH; assay type: physicochemical
Experimental: Solutions at different pH are prepared (natural pH (not buffered) and pH 4.5, 5.0, 5.5, 6.0. The pH is controlled by means of an adequate buffer in order to obtain the wished pH (in the example: 50 mM acetate).
as §1, §2
The pH of the various solutions is measured at the beginning of the test and after 2 weeks, 4 weeks, and 10 weeks. The amounts of degradation products in the seletracetam solutions are dosed in the various solutions.

[6] = solution having a pH range of 5.0 and 6.0
[7] = solution in the range of pH of 4.5 and 6.5
[8] = 10 mg IV infusion or IV bolus versus 10 mg oral tablet, fully contained within the bioequivalence range

SMILES	degradation rate [1, 6]	stability of solution [1, 7]	pKi [2]	ED50 [3]	90% confidence intervals of geometric ratios of AUC [4, 8]	90% confidence intervals of geometric ratios of Cmax [4, 8]	bioequivalence to single dose of brivaracetam 10 mg oral tablet ([4]; 10 mg via 15-minute IV infusion, healthy subjects)	bioequivalence to single dose of brivaracetam 10 mg oral tablet ([4]; 10 mg via IV bolus, healthy subjects)	pharmacokinetic parameters after IV infusion and IV bolus ([4]; IV infusion compared with IV bolus)	extent of exposure versus dose ([4]; dose range 25-150 mg)	safety and tolerability ([4]; from 25 mg to 150 mg as IV infusion or IV bolus, healthy subjects)	degradation rate [5, 6]	stability of solution [5, 7]	Ki ([2]; rat cerebral cortex membranes, [3H]-2-[4-(3-azidophenyl)-2-oxo-1-pyrrolidinyl]butanamide radioligand, read-out: pKi (converted))
CCC[C@@H]1CC(=O)N([C@@H](CC)C(N)=O)C1 [Brivaracetam, (2S)-2-[(4R)-2-oxo-4-propyl-pyrrolidin-1-yl] butanamide]	lowest	stable	≥ 6.00	≤ 100 µmol/kg	80-125%	80-125%	bioequivalent	bioequivalent	similar	proportional to the administered dose	safe and well tolerated			
CC[C@@H](C(N)=O)N1C[C@H](C=C(F)F)CC1=O [Seletracetam, (2S)-2-[(4S)-4-(2,2-difluorovinyl)-2-oxo-pyrrolidin-1-yl]butanamide]				≤ 100 µmol/kg								lowest	stable	≤ 1 µM
